Target: Muscarinic acetylcholine receptor M4 (Rattus norvegicus) (UniProt P08485)
Assay: potentiation of rat M4 acetylcholine response – CHO cells, Gqi5 chimera, calcium, ACh EC20, selectivity assay for human M4 PAM optimization, SAR follow-up (AID 623945)
Conditions: CHO rM4/Gqi5 calcium fluorescence;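 active means compounds whose calcium response at rat M4 cells rose with dose, giving a fitted EC50; inactive means the rest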

Sequence of Muscarinic acetylcholine receptor M4 (Rattus norvegicus) (P08485 whole entry, looked up): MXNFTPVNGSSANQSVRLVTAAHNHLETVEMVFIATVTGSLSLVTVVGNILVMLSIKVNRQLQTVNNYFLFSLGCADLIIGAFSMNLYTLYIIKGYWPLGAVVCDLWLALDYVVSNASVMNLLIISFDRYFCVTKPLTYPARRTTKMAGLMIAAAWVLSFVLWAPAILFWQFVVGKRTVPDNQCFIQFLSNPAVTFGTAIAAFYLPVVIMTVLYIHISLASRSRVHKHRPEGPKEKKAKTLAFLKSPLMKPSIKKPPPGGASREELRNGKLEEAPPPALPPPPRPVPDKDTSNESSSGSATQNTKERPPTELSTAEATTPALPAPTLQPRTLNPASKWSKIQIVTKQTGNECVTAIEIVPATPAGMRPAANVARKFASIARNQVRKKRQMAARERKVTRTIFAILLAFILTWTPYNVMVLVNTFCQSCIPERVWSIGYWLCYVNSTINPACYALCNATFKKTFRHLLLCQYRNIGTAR

EC50, active:
Cc1nc2sc(C(=O)NCc3ccccc3)c(N)c2c(C)c1Cl 126 nM
COc1ccc(C)c2sc(NC(=O)c3ccncc3)nc12 3210 nM
Cc1nc2sc(C(=O)NCc3cccc(F)c3F)c(N)c2c(C)c1Cl 114 nM
Cc1nc2sc(C(=O)NCc3ccncn3)c(N)c2c(C)c1Cl 527 nM
Cc1nc2sc(C(=O)NCc3ccncc3)c(N)c2c(C)c1Cl 173 nM
Cc1nc2sc(C(=O)NCCc3ccncc3)c(N)c2c(C)c1Cl 229 nM
Cc1nc2sc(C(=O)NC3CC3)c(N)c2c(C)c1Cl 151 nM
Cc1nc2sc(C(=O)NCc3nccs3)c(N)c2c(C)c1Cl 187 nM
Cc1nc2sc(C(=O)NCc3ccc4c(c3)OCO4)c(N)c2c(C)c1Cl 62 nM
Cc1nc2sc(C(=O)NCc3cccnc3)c(N)c2c(C)c1Cl 272 nM
